The record followed here is the supplement of paper PMC10307832.

Compound in the test: CC1=C(C=CC(=C1)[N+](=O)[O-])NS(=O)(=O)C2=C(C=CC(=C2)Cl)Cl [FH535]
The test can be described thus: relative viability (nuclei count vs DMSO), 5 days (fraction); higher = more cells survive. An outline of the steps:
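After an overnight hold at 37 °C, lung cancer cell lines in 1536-well plates were pinned with five library-drug doses (not always all listed), each √10 from the next, on vehicle-anchored plates. The cells stayed 5 days without fresh medium, then a one-step fix, permeabilisation and Hoechst stain preceded 4× imaging and MetaXpress nuclear counts. A plate passed only with control CV under 25% and at least one doubling. Viability is the median, over plates, of treated-well nuclei relative to vehicle-well nuclei.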

Take 201T: the relative viability is, setting by setting: (0.04 µM) 0.976; (0.1265 µM) 1; (0.4 µM) 0.884; (1.265 µM) 0.862.

For the cell line A-427, the relative viability runs as follows: (0.04 µM) 0.908; (0.1265 µM) 1.05; (0.4 µM) 0.926; (1.265 µM) 0.819.

Consider ABC-1, for which the relative viability by setting is: (0.04 µM) 1; (0.1265 µM) 0.858; (0.4 µM) 0.812; (1.265 µM) 0.774.

On to BEN, for which the relative viability is, setting by setting: (0.04 µM) 0.92; (0.1265 µM) 0.946; (0.4 µM) 0.862; (1.265 µM) 0.653.

As for CAL-12T, the relative viability by setting is: (0.04 µM) 0.989; (0.1265 µM) 0.977; (0.4 µM) 0.819; (1.265 µM) 0.591.

As for COR-L23, the relative viability came out at 0.98 (0.04 µM), 1.03 (0.1265 µM), 0.842 (0.4 µM) and 0.573 (1.265 µM).

For COR-L 105, the relative viability by setting is: (0.04 µM) 0.882; (0.1265 µM) 1.08; (0.4 µM) 0.76; (1.265 µM) 0.82.

As for ChaGo-K-1, the relative viability runs as follows: (0.04 µM) 0.91; (0.1265 µM) 1.06; (0.4 µM) 0.887; (1.265 µM) 0.775.

Turning to EKVX, the relative viability reads like this: (0.04 µM) 0.987; (0.1265 µM) 0.951; (0.4 µM) 0.905; (1.265 µM) 0.773.

EMC-BAC-2: the relative viability by setting is: (0.04 µM) 0.808; (0.1265 µM) 0.953; (0.4 µM) 0.913; (1.265 µM) 0.839.

In the case of EPLC-272H, the relative viability reads like this: (0.04 µM) 0.838; (0.1265 µM) 0.934; (0.4 µM) 0.796; (1.265 µM) 0.774.

On to H3255, for which the relative viability reads like this: (0.04 µM) 0.953; (0.1265 µM) 0.945; (0.4 µM) 0.955; (1.265 µM) 0.745.

Take HARA: the relative viability reads like this: (0.04 µM) 0.855; (0.1265 µM) 0.876; (0.4 µM) 0.779; (1.265 µM) 0.711.

Regarding HCC-15, the relative viability (0.04 µM) worked out at 0.928, the relative viability (0.1265 µM) was 0.998, the relative viability (0.4 µM) was found to be 0.841 and the relative viability (1.265 µM) amounted to 0.786.

As for HCC-44, the relative viability reads like this: (0.04 µM) 0.994; (0.1265 µM) 0.943; (0.4 µM) 0.836; (1.265 µM) 0.747.

Take HCC-78: the relative viability turned out to be 0.927 (0.04 µM), 1 (0.1265 µM), 0.951 (0.4 µM) and 0.865 (1.265 µM).

HCC-366: the relative viability runs as follows: (0.04 µM) 1; (0.1265 µM) 1.05; (0.4 µM) 0.973; (1.265 µM) 0.992.

In the case of HCC-827, the relative viability is 0.956 (0.04 µM), 1.04 (0.1265 µM), 0.936 (0.4 µM) and 0.767 (1.265 µM).

For the cell line HOP-62, the relative viability is 0.89 (0.04 µM), 0.919 (0.1265 µM), 0.93 (0.4 µM) and 0.853 (1.265 µM).

In the case of IA-LM, the relative viability by setting is: (0.04 µM) 0.963; (0.1265 µM) 0.864; (0.4 µM) 0.868; (1.265 µM) 0.713.

For LC-2-ad, the relative viability is, setting by setting: (0.04 µM) 0.894; (0.1265 µM) 0.936; (0.4 µM) 0.857; (1.265 µM) 0.71.

Turning to LCLC-97TM1, the relative viability (0.04 µM) was determined as 0.809, the relative viability (0.1265 µM) stood at 0.913, the relative viability (0.4 µM) turned out to be 0.844 and the relative viability (1.265 µM) amounted to 0.913.

For the cell line LCLC-103H, the relative viability (0.04 µM) worked out at 0.919, the relative viability (0.1265 µM) is 1.03, the relative viability (0.4 µM) came to 0.901 and the relative viability (1.265 µM) is 0.753.

As to LK-2, the relative viability was 0.919 (0.04 µM), 0.983 (0.1265 µM), 0.996 (0.4 µM) and 1.17 (1.265 µM).

For the cell line LOU-NH91, the relative viability reads like this: (0.04 µM) 0.936; (0.1265 µM) 1.07; (0.4 µM) 0.742; (1.265 µM) 0.472.

Consider LU99A, for which the relative viability is, setting by setting: (0.04 µM) 0.812; (0.1265 µM) 0.973; (0.4 µM) 0.854; (1.265 µM) 0.811.

For LXF-289, the relative viability is 0.99 (0.04 µM), 0.989 (0.1265 µM), 0.913 (0.4 µM) and 0.851 (1.265 µM).

In the case of NCI-H23, the relative viability is, setting by setting: (0.04 µM) 0.635; (0.1265 µM) 1.01; (0.4 µM) 0.967; (1.265 µM) 0.687.

As to NCI-H322M, the relative viability (0.04 µM) came out at 0.92, the relative viability (0.1265 µM) amounted to 0.93, the relative viability (0.4 µM) came to 0.937 and the relative viability (1.265 µM) is 0.761.

As for NCI-H358, the relative viability (0.04 µM) was 0.853, the relative viability (0.1265 µM) is 1.11, the relative viability (0.4 µM) is 0.814 and the relative viability (1.265 µM) is 0.674.

With NCI-H441, the relative viability reads like this: (0.04 µM) 0.929; (0.1265 µM) 1.14; (0.4 µM) 1.14; (1.265 µM) 0.84.

Regarding NCI-H460, the relative viability was 0.997 (0.04 µM), 1.03 (0.1265 µM), 0.935 (0.4 µM) and 0.699 (1.265 µM).

Take NCI-H520: the relative viability reads like this: (0.04 µM) 0.963; (0.1265 µM) 1.04; (0.4 µM) 0.934; (1.265 µM) 0.915.

Turning to NCI-H596, the relative viability reads like this: (0.04 µM) 0.926; (0.1265 µM) 0.865; (0.4 µM) 0.975; (1.265 µM) 0.908.

As for NCI-H647, the relative viability is, setting by setting: (0.04 µM) 0.872; (0.1265 µM) 1.05; (0.4 µM) 0.906; (1.265 µM) 0.801.

For the cell line NCI-H650, the relative viability by setting is: (0.04 µM) 0.82; (0.1265 µM) 0.913; (0.4 µM) 0.846; (1.265 µM) 0.687.

Regarding NCI-H661, the relative viability amounted to 1 (0.04 µM), 1.01 (0.1265 µM), 0.955 (0.4 µM) and 0.637 (1.265 µM).
